According to patent US20130315825A1, “TRICYCLIC HETEROAROMATIC COMPOUNDS AS ALPHA-SYNUCLEIN LIGANDS” (Washington University, priority 2012, published 2013):

Assays:
Aβ1-42 fibrils = biological target: T1, Aβ1-42 fibrils (Homo sapiens, UniProt P05067); test: [125I]SIL23 competitive binding assay, Aβ1-42 fibrils; details: [125I]SIL23 competition, 95% confidence intervals in parentheses
T1 construct: Synthetic Aβ1-42 peptide (1 mg) (Bachem, Torrance, Calif.); purchased Bachem, Torrance, Calif; host or cells: synthetic peptide

tau fibrils = biological target: T2, tau fibrils (Homo sapiens, UniProt P10636); test: [125I]SIL23 competitive binding assay, tau fibrils; details: [125I]SIL23 competition, 95% confidence intervals in parentheses
T2 construct: made in house; host or cells: BL21(DE3)RIL E. coli

α-synuclein fibrils = α-synuclein fibrils (Homo sapiens, UniProt P37840); test: ThT fluorescence saturation binding to α-synuclein fibrils; design: made in house; host or cells: BL21(DE3)RIL E. coli
Description: The maximum excitation wavelength (λex) was determined according to the fluorescent intensity-excitation wavelength curve. At (λex), the emission wavelength was scanned to get maximum emission wavelength (λem).

[1] = MicroPET study in the brain of a nonhuman primate; format: in vivo, cynomolgus monkey; details: monkey 5.8 kg, 8.68 mCi/6 mL injected
Description: The brain of a cynologmus monkey was scanned using a microPET scanner. The left panel is the MRI image. The middle panel is the co-registered the MRI and PET image. The right panel is the PET image. […] FIG. 74 presents a plot of the radiation in portions of the monkey brain as a function of time. […] It also has favorable clearance pharmacokinetics from the brain.

[2] = Ex vivo biodistribution in Sprague-Dawley rats; details: for brain uptake: male SD rats (n=4);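 as to all read-outs here: four rats in each time-point group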
Description: Group of rats (n=4) were used for each time point. […] The whole brain was quickly removed and dissected into segments consisting of brain stem, thalamus, striatum, hippocampus, cortex, and cerebellum. The remainder of the brain was also collected to determine total brain uptake. […] Tissues were weighed, and the % I.D./g for each tissue was calculated.

T1 sequence (P05067 672-713 limits assumed): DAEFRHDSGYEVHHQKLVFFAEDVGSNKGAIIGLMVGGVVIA
T2 sequence (P10636 560-692): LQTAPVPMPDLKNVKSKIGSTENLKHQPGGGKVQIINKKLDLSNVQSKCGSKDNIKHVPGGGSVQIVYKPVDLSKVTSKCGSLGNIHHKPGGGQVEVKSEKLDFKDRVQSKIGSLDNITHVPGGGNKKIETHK

SMILES: COc1ccc2c(c1)Sc1cc(N)ccc1N2C [Compound 13a, 7-methoxy-10-methyl-10H-phenothiazin-3-amine]
- melting point: 141.6 to 142.9 °C

SMILES: O=[N+]([O-])c1ccc2c(c1)Sc1ccccc1N2 [SIL3B, 3-nitro-10H-phenothiazine]
- Ki (Aβ1-42 fibrils): 71.5 nM
- Ki (tau fibrils): 52.3 nM

SMILES: O=[N+]([O-])c1ccc2c(c1)Sc1cc(Br)ccc1N2 [SIL22, 3-bromo-7-nitro-10H-phenothiazine]
- Ki (Aβ1-42 fibrils): 102 nM
- Ki (tau fibrils): 173 nM

SMILES: Cc1ccc2c(c1)sc(-c1ccc(N(C)C)cc1)[n+]2C [ThT, Thioflavin T]
- Bmax (α-synuclein fibrils): 5672 afu

SMILES: COc1ccc2c(c1)Sc1cc([N+](=O)[O-])ccc1N2 [[^11C]SIL5]
- brain uptake (microPET) [1]: high uptake in the brain
- washout kinetics from the brain (microPET) [1]: good washout kinetics
- Biodistribution ([2]; blood, 5 min, male Sprague-Dawley rats): 0.506 ± 0.040 I.D. %/gram
- Biodistribution ([2]; blood, 30 min, male Sprague-Dawley rats): 0.369 ± 0.031 I.D. %/gram
- Biodistribution ([2]; blood, 60 min, male Sprague-Dawley rats): 0.300 ± 0.015 I.D. %/gram
- brain uptake ([2]; 5 min post i.v. injection): 0.953±0.115 % I.D./g
- brain uptake ([2]; 30 min post i.v. injection): 0.287±0.046 % I.D./g
- brain uptake ([2]; 60 min post i.v. injection): 0.158±0.014 % I.D./g
- Biodistribution ([2]; fat, 5 min, male Sprague-Dawley rats): 0.155 ± 0.023 I.D. %/gram
- Biodistribution ([2]; fat, 30 min, male Sprague-Dawley rats): 0.241 ± 0.042 I.D. %/gram
- Biodistribution ([2]; fat, 60 min, male Sprague-Dawley rats): 0.293 ± 0.076 I.D. %/gram
- Biodistribution ([2]; heart, 5 min, male Sprague-Dawley rats): 0.758 ± 0.052 I.D. %/gram
- Biodistribution ([2]; heart, 30 min, male Sprague-Dawley rats): 0.377 ± 0.046 I.D. %/gram
- Biodistribution ([2]; heart, 60 min, male Sprague-Dawley rats): 0.245 ± 0.010 I.D. %/gram
- Biodistribution ([2]; kidney, 30 min, male Sprague-Dawley rats): 0.807 ± 0.086 I.D. %/gram
- Biodistribution ([2]; kidney, 60 min, male Sprague-Dawley rats): 0.559 ± 0.053 I.D. %/gram
- Biodistribution ([2]; liver, 5 min, male Sprague-Dawley rats): 2.198±0.111 I.D. %/gram
- Biodistribution ([2]; liver, 30 min, male Sprague-Dawley rats): 1.349 ± 0.116 I.D. %/gram
- Biodistribution ([2]; liver, 60 min, male Sprague-Dawley rats): 1.116±0.024 I.D. %/gram
- decrease of liver uptake ([2]; liver, from 5 min to 60 min): about 50%
- Biodistribution ([2]; lung, 5 min, male Sprague-Dawley rats): 1.149 ± 0.058 I.D. %/gram
- Biodistribution ([2]; lung, 30 min, male Sprague-Dawley rats): 0.740 ± 0.038 I.D. %/gram
- Biodistribution ([2]; lung, 60 min, male Sprague-Dawley rats): 0.485 ± 0.036 I.D. %/gram
- ability to cross the blood-brain-barrier (BBB) ([2]; male Sprague-Dawley rats, i.v.): able to cross BBB
- Biodistribution ([2]; muscle, 5 min, male Sprague-Dawley rats): 0.271 ± 0.005 I.D. %/gram
- Biodistribution ([2]; muscle, 30 min, male Sprague-Dawley rats): 0.325 ± 0.030 I.D. %/gram
- Biodistribution ([2]; muscle, 60 min, male Sprague-Dawley rats): 0.199 ± 0.016 I.D. %/gram
- Biodistribution ([2]; pancreas, 5 min, male Sprague-Dawley rats): 1.007 ± 0.262 I.D. %/gram
- Biodistribution ([2]; pancreas, 30 min, male Sprague-Dawley rats): 0.506 ± 0.066 I.D. %/gram
- Biodistribution ([2]; pancreas, 60 min, male Sprague-Dawley rats): 0.522 ± 0.036 I.D. %/gram
- Biodistribution ([2]; spleen, 5 min, male Sprague-Dawley rats): 0.659 ± 0.049 I.D. %/gram
- Biodistribution ([2]; spleen, 30 min, male Sprague-Dawley rats): 0.400 ± 0.052 I.D. %/gram
- Biodistribution ([2]; spleen, 60 min, male Sprague-Dawley rats): 0.386 ± 0.027 I.D. %/gram
